Measurements taken from US20200339548A1, “PYRIMIDINE DERIVATIVES AND THEIR USE FOR THE TREATMENT OF CANCER” (Adorx Therapeutics Limited, priority 2017, published 2020).
pKi: −log10 of the molar value. Like-named read-outs stand apart in the source and are kept apart here.

Legend:
[1] = target: T1, Adenosine A2a receptor (Homo sapiens, UniProt P29274); assay: Adenosine receptor TR-FRET binding assay, A2a; conditions: displacement of 100 nM CA200645, CHO cell membranes
T1 construct: expressed in transfected cells; host or cells: CHO cell membranes
In short: (§1)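 Competition TR-FRET binding in CHO cell membranes expressing terbium-labelled human receptors, displacing fluorescent XAC (CA200645; 30 nM for A2b, 100 nM for A1, A2a, A3); 2 h at room temperature with saponin buffer, 1% DMSO. 665/620 nm ratio; non-specific with 10 μM XAC; Ki by Cheng–Prusoff from IC50.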

[2] = tested on: Human PBMCs; assay: CD3/CD28 stimulated IL-2 release NECA reversal assay; format: cell-based; conditions: Homo sapiens, PBMC, read-out: IL-2 release NECA reversal IC50 (nM), 1 uM NECA, 24 hours
Procedure: Blood is drawn from healthy volunteers using sodium citrate as the anticoagulant (0.3% final concentration). […] 50 μl diluted compound mix is added to the cells, to obtain final concentrations of 1 ug/ml CD28 antibody, 1 uM NECA and 0.003-10 μM adenosine receptor antagonist. Assay plates are incubated for 24 hours at 37° C. in a humidified incubator.

[3] = target: T2, Adenosine A1 receptor (Homo sapiens, UniProt P30542); assay: Adenosine receptor TR-FRET binding assay, A1; conditions: Table 9, further testing; displacement of 100 nM CA200645, CHO cell membranes
T2 construct: expressed in transfected cells; host or cells: CHO cell membranes
T2 sequence (P30542 1-326): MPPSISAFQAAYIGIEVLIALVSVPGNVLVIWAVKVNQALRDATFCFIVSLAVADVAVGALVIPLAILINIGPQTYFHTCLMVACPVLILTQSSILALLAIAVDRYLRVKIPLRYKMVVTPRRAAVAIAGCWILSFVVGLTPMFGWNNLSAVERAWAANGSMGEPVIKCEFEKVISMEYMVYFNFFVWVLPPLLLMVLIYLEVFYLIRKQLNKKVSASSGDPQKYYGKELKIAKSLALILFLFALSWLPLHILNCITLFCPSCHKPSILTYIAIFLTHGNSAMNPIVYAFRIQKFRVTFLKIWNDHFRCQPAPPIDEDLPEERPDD
In short: as §1

[4] = target: T3, Adenosine A2b receptor (Homo sapiens, UniProt P29275); assay: Adenosine receptor TR-FRET binding assay, A2b; conditions: Table 9, further testing; displacement of 30 nM CA200645, CHO cell membranes
T3 construct: expressed in transfected cells; host or cells: CHO cell membranes
T3 sequence (P29275 1-332): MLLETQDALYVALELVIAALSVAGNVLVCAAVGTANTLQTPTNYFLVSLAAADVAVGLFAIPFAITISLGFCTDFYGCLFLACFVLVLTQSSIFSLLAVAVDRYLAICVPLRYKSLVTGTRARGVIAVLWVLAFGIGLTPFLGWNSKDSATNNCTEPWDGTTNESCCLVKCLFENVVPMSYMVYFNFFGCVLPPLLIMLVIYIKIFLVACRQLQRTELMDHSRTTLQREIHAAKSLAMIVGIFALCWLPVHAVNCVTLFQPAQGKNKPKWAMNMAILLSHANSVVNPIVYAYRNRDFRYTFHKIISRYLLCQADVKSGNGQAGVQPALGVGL
In short: as §1

[5] = target: T4, Adenosine A3 receptor (Homo sapiens, UniProt P0DMS8); assay: Adenosine receptor TR-FRET binding assay, A3
T4 construct: expressed in transfected cells; host or cells: CHO cell membranes
T4 sequence (P0DMS8 1-318): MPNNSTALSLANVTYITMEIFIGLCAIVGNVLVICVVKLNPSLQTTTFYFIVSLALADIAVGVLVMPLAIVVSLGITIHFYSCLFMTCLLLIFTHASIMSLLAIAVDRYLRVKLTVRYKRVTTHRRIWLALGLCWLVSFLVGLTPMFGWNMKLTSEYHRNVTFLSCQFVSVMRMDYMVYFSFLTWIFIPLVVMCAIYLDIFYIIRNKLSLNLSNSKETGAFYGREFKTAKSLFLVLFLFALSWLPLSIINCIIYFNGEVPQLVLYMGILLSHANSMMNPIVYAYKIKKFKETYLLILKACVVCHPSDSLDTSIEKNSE
In short: as §1

[6] = Table 9, further testing, displacement of 100 nM CA200645, CHO cell membranes, read-out: A3 Ki

T1 sequence (P29274 whole entry): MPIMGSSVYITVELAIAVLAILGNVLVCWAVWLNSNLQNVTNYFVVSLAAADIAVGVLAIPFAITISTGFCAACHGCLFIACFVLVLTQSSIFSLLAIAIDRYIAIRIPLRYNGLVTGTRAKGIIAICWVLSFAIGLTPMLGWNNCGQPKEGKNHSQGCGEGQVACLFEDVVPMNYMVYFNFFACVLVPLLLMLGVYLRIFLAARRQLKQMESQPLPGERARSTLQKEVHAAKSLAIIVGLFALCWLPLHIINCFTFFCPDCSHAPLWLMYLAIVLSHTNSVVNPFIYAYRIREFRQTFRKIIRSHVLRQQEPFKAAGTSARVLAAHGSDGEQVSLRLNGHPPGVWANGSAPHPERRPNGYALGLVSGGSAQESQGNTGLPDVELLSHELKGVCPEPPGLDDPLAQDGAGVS

SMILES | pKi ([1]; Table 8, Cheng and Prusoff) | pKi ([1]; Table 9, further testing) | IC50 [2] | pKi [3] | pKi [4] | pKi [5] | pKi [5, 6]
Nc1nc(-c2ccco2)ncc1C(=O)NCc1ncccc1Cl [Example 5.21, 4-Amino-N-[(3-chloro-2-pyridyl)methyl]-2-(2-furyl)pyrimidine-5-carboxamide] | 8.82 | 8.82 | 123 nM | 5.73 | 5.94 | 5.93 | –
CC(C)n1ncnc1CNC(=O)c1cnc(-c2cccc(F)c2)nc1N [Example 10.15, 4-Amino-2-(3-fluorophenyl)-N-[(2-isopropyl-1,2,4-triazol-3-yl)methyl]pyrimidine-5-carboxamide] | 7.47 | 7.47 | 1290 nM | 7.05 | 5.89 | – | 5.60
Nc1nc(-c2ccco2)ncc1C(=O)NCc1cccc(Cl)c1 [Example 5.12, 4-Amino-N-[(3-chlorophenyl)methyl]-2-(2-furyl)pyrimidine-5-carboxamide] | 8.39 | 8.41 | 345 nM | 6.02 | 5.80 | – | 5.94
CCn1ccnc1CNC(=O)c1cnc(-c2cccc(F)c2)nc1N [Example 10.14, 4-Amino-N-[(1-ethylimidazol-2-yl)methyl]-2-(3-fluorophenyl)pyrimidine-5-carboxamide] | 7.38 | 7.38 | 1240 nM | 6.80 | 5.94 | – | 6.22
Cc1cccnc1CNC(=O)c1nnc(-c2ccco2)nc1N [Example 2, 5-Amino-3-(2-furyl)-N-[(3-methyl-2-pyridyl)methyl]-1,2,4-triazine-6-carboxamide] | 9.05 | 9.10 | 408 nM | 6.50 | 7.02 | – | 7.30
Cc1cccnc1CNC(=O)c1c(N)nc(-c2ccco2)nc1OCCF [Example 20.7, 4-Amino-6-(2-fluoroethoxy)-2-(2-furyl)-N-[(3-methyl-2-pyridyl)methyl]pyrimidine-5-carboxamide] | – | 9.96 | 14 nM | 8.18 | 7.54 | – | 7.82
COc1nc(-c2ccco2)nc(N)c1C(=O)NCc1ncccc1C [Example 18, 4-Amino-2-(2-furyl)-6-methoxy-N-[(3-methyl-2-pyridyl)methyl]pyrimidine-5-carboxamide] | 8.96 | 9.19 | 37 nM | 6.69 | 6.64 | – | 6.70
Cc1cccnc1CNC(=O)c1cnc(-c2cccc(C#N)c2)nc1N [Example 12, 4-Amino-2-(3-cyanophenyl)-N-[(3-methyl-2-pyridyl)methyl]pyrimidine-5-carboxamide] | 7.57 | 7.57 | 1200 nM | 7.77 | 5.81 | – | 5.99
Cn1ncnc1CNC(=O)c1c(N)nc(-c2cccc(C#N)c2)nc1OCCF [Example 24.7, 4-Amino-2-(3-cyanophenyl)-6-(2-fluoroethoxy)-N-[(2-methyl-1,2,4-triazol-3-yl)methyl]pyrimidine-5-carboxamide] | – | 8.09 | 212 nM | 6.84 | – | – | 5.79
Cc1cccnc1CNC(=O)c1nnc(-c2cccc(F)c2)nc1N [Example 7, 5-Amino-3-(3-fluorophenyl)-N-[(3-methyl-2-pyridyl)methyl]-1,2,4-triazine-6-carboxamide] | 7.96 | 7.92 | 830 nM | 7.38 | 6.42 | – | 7.89
Nc1nc(-c2cccc(F)c2)ncc1C(=O)NCc1cccc2cccnc12 [Example 10.13, 4-Amino-2-(3-fluorophenyl)-N-(8-quinolylmethyl)pyrimidine-5-carboxamide] | 8.33 | 8.48 | 926 nM | 7.42 | 6.38 | – | 6.98
Cc1cccnc1CNC(=O)c1nnc(-c2cccc(C#N)c2)nc1N [Example 17, 5-Amino-3-(3-cyanophenyl)-N-[(3-methyl-2-pyridyl)methyl]-1,2,4-triazine-6-carboxamide] | 8.42 | 8.62 | 309 nM | 6.12 | 6.39 | – | 6.35
COc1nc(-c2ccco2)nc(N)c1C(=O)NCc1ncccc1C(F)(F)F [Example 18.1, 4-Amino-2-(2-furyl)-6-methoxy-N-[[3-(trifluoromethyl)-2-pyridyl]methyl]pyrimidine-5-carboxamide] | – | 9.64 | 28 nM | 6.75 | 6.31 | – | 6.83
COc1ccccc1CNC(=O)c1cnc(-c2ccco2)nc1N [Example 5.20, 4-Amino-2-(2-furyl)-N-[(2-methoxyphenyl)methyl]pyrimidine-5-carboxamide] | 8.96 | 9.02 | 122 nM | 6.37 | 5.92 | – | 6.12
Cc1cccnc1CNC(=O)c1c(N)nc(-c2ccco2)nc1OCC(C)(C)C [Example 20.10, 4-Amino-6-(2,2-dimethylpropoxy)-2-(2-furyl)-N-[(3-methyl-2-pyridyl)methyl]pyrimidine-5-carboxamide] | – | 8.74 | 62 nM | 8.31 | 5.91 | – | 7.96
COc1ccccc1CNC(=O)c1cnc(-c2cccc(F)c2)nc1N [Example 10.8, 4-Amino-2-(3-fluorophenyl)-N-[(2-methoxyphenyl)methyl]pyrimidine-5-carboxamide] | 7.57 | 7.57 | 2000 nM | 6.84 | 5.76 | – | 6.64
CC(O)CCNC(=O)c1c(N)nc(-c2cccc(C#N)c2)nc1OCCF (stereo not shown) [Example 24.6, 4-Amino-2-(3-cyanophenyl)-6-(2-fluoroethoxy)-N-(3-hydroxybutyl)pyrimidine-5-carboxamide] | – | 8.15 | 207 nM | 6.20 | 5.97 | – | 5.65
Nc1nc(-c2ccco2)ncc1C(=O)NCc1ccccc1F [Example 5.18, 4-Amino-N-[(2-fluorophenyl)methyl]-2-(2-furyl)pyrimidine-5-carboxamide] | 8.42 | 8.48 | 230 nM | 5.75 | 6.67 | – | 5.71
Nc1nc(-c2ccco2)ncc1C(=O)NCc1cccc2cccnc12 [Example 5.25, 4-Amino-2-(2-furyl)-N-(8-quinolylmethyl) pyrimidine-5-carboxamide] | 8.92 | 9.08 | 15 nM | 6.15 | 5.83 | – | 6.30
Nc1nc(-c2ccco2)ncc1C(=O)NCc1ccccc1O [Example 11.2, 4-amino-2-(2-furyl)-N-[(2-hydroxyphenyl)methyl]pyrimidine-5-carboxamide] | 8.92 | 9.15 | 71 nM | 6.10 | 7.30 | – | –
Nc1nc(-c2cccc(F)c2)ncc1C(=O)NCc1c(Cl)cccc1Cl [Example 10.6, 4-Amino-N-[(2,6-dichlorophenyl)methyl]-2-(3-fluorophenyl)pyrimidine-5-carboxamide] | 7.49 | 7.49 | 685 nM | 6.64 | 5.88 | – | 6.80
Nc1nc(-c2ccco2)ncc1C(=O)NC1Cc2ccccc2C1 [Example 5.24, 4-Amino-2-(2-furyl)-N-indan-2-yl-pyrimidine-5-carboxamide] | 8.62 | 8.59 | 364 nM | 5.90 | 5.79 | – | –
